Assays:
[1] = biodistribution to cortex after lateral ventricle infusion (wide-field fluorescence through cranial window); format: in vivo, mouse; settings: -HTP mice, high dose into lateral ventricle
Source text: To maintain control of the ambient drug concentration in vivo, thus far a cannula was implanted in close proximity to the desired brain target. (FIG. 5) However, optical and electrical brain interfaces often occupy this precious real estate. For example, cranial window technologies, in which a portion of the skull is replaced with a glass window, have become instrumental in studying the neocortex. Application of drugs through a glass window remains an unsolved problem, as access ports will generally close due to scarring, and temporary removal of the window can compromise the preparation. Thus, it was asked whether DART.2 could enable dosing from a distance via the cerebrospinal fluid (CSF). Delivery via the cisterna magna was first explored, given reports that dextran tracers delivered at this site achieve rapid biodistribution throughout the neocortex parenchyma. Although there was some preliminary success with this approach, it was found difficult to establish mechanically stable cannulation of the cisterna magna, owing to its position below the base of the skull and to the mobility of the neck muscles. […] Following surgical recovery, a high dose of Alexa647.1DART.2 was fused into the LV (dose, volume) and monitored wide-field fluorescence intensity through the cranial window. Fluorescence intensity peaked 2 hr later, and largely cleared by 24 hours (i2055,i2056). […]

[2] = tested on: +HTP somatostatin interneurons and -HTP neurons of V1 visual cortex; assay: 2P calcium imaging of V1 visual responses after contralateral ventricle infusion, SOM-Cre mice; format: in vivo, mouse; settings: infused with YM90K.1DART.2 into contralateral ventricle, widefield fluorescence
Experimental: Top left: Mice expressing pan-neuronal GCaMP8s with SOM-specific ^+HTP. Window over V1. DART delivered via the contralateral ventricle. Bottom left: In-vivo and ex-vivo expression and dye capture. Right: Mice presented oriented visual gratings, 2P Ca^2+ imaging obtained before and 5-6 hr after infusion of 0.3 nmole Alexa647.1^DART.2+3 nmole YM90K.1^DART.2 (2 μL volume) into the contralateral ventricle.
Next, it was examined whether this strategy could deliver a pharmacologically active DART to genetically defined cells. A surgery was performed in which AAV DIO +HTPGPI was injected into the V1 visual cortex of SOM-Cre mice for cell-specific expression in somatostatin interneurons, along with a co-injected AAV-GCaMP8s virus for pan-neuronal neural activity monitoring. A cannula was implanted in the contralateral ventricle, and glass window over V1. Following surgical recovery, a mixture of YM90K.1DART.2+Alexa647.1DART.2 was infused. […] To test for pharmacological effects, 2P calcium imaging of +HTP and −HTP was performed while mice were presented with oriented gratings. A reduction in +HTP visual response was apparent 4 hours post DART infusion. This reduction persisted even after 24 hours post infusion.

[3] = molecular target: T1, HTP on retinal ganglion cells (Rhodococcus rhodochrous, UniProt P0A3G2, A155T/A167V/A172T/A224E/C128F/C176G/D78G/E160K/E257K/H272N/K175M/K195N/L47V/L88M/N227D/S58T/T264A/Y273L/Y87F); assay: tracer dye capture on retinal ganglion cells; format: cell-based, mouse; settings: 30 nM, 15 min, after washout
T1 construct: SSnlg signal peptide (residues 1-49 of mouse neuroligin-1) (N); Thy1 GPI anchor signal (C); expressed in transfected cells; host or cells: mouse neurons transduced in vivo with AAV-DIO-+HTPGPI (D1-Cre dorsal striatum; PV::cre retinal ganglion cells)
T1 sequence (P0A3G2 other isoform, or with tags, fused parts or gaps with the stated changes): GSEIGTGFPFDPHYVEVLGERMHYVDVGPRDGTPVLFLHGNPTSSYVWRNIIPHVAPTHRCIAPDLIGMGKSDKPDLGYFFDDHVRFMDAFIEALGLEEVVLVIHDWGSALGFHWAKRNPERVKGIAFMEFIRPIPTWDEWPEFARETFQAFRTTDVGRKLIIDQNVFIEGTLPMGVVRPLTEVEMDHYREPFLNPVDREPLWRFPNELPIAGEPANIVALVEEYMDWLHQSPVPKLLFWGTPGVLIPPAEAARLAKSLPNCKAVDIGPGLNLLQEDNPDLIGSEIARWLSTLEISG
Experimental: FIG. 6A-6C show bidirectional manipulation of AMPAR and GABAAR neurotransmission. (FIG. 6A) Viral strategy (top panel). Intravitreal AAV7m8-DIO-HTPGPI-2A-dTomao achieves retinal ganglion cell (RGC) expression in PV::cre mice. Experimental overview (second panel from the top to bottom panel). Top: whole retina; synaptic current is evoked (stim) and recorded (voltage-clamp of dTomato+ RGC), with ionic and pharmaceutical conditions chosen to isolate the AMPAR or GABAAR. A 10 min baseline is followed by 15 min application of 300 nM Rx^DART.2+30 nM Alexa^647.1DART.2. […] (FIG. 6B) CMPDA.2^DART.2 (left). Electropositive spacer (PDB 3RNN). […] EPSC waveform before and after CMPDA.2^DART.2. AMPAR structural model (middle) (composite of PDB 5WEO, 3RNN, and 1FTL). Cylinder depicts cell membrane. CMPDA.2^DART.2 binds within an inter-clamshell interface (2 per receptor). YM90K.1^DART.2 binds the orthosteric glutamate binding site in the clamshell (4 per receptor). YM90K.1^DART.2 (right). […]
Next it was asked whether bidirectional modulation of the AMPAR and GABAAR could be achieved in the same cell type. A preparation was focused on in which electrophysiology is the primary readout, enabling resolution of the amplitude and millisecond time-constant of synaptic transmission. […] A whole-mount retina was later prepared and evoked synaptic currents were measured under conditions that isolate the AMPAR or GABAAR. […]

[4] = tested on: AMPAR; assay: positive allosteric modulation of the AMPAR by CMPDA reagents; format: cell-based
Source text: To complete the bidirectional ionotropic toolkit, allosteric modulators of the AMPAR were explored. For many pharmaceuticals of this class, including cyclothiazide, two drug molecules are known to bind in close proximity, one on each side of the interface between adjacent ligand-binding domains. Thus, newer pharmaceuticals of this class were focused on, which can span the two binding sites simultaneously, reasoning that it would be easier to accommodate a single tether into the binding interface. In particular, CMPDA (phenyl-1,4-bisalkylsulfonamide) was focused on, owing to its structural simplicity and availability of an experimental atomic structure. […] A synthetic scheme to resynthesize CMPDA while installing a short PEG spacer domain at a point of attachment was devised to allow tether access from the allosteric binding site to free solution. […] Altering the electrostatic properties of the spacer domain was explored. In silico docking and experimental iteration to redesign the electronegative spacer (CCOCCOCC) into a polar neutral spacer (CBNCCCNC) was used, yielding CMPDA.2alkyne, which was converted into the full-length CMPDA.2DART.2.

[5] = tested on: AMPAR; assay: whole-mount retina, AMPAR-mediated evoked EPSC in retinal ganglion cells; format: cell-based, mouse; settings: 300 nM, 15 min
Experimental: (FIG. 6A) Viral strategy (top panel). […] Experimental overview (second panel from the top to bottom panel). Top: whole retina; synaptic current is evoked (stim) and recorded (voltage-clamp of dTomato+ RGC), with ionic and pharmaceutical conditions chosen to isolate the AMPAR or GABAAR. A 10 min baseline is followed by 15 min application of 300 nM Rx^DART.2+30 nM Alexa^647.1DART.2. […] (FIG. 6B) CMPDA.2^DART.2 (left). Electropositive spacer (PDB 3RNN). […] AMPAR structural model (middle) (composite of PDB 5WEO, 3RNN, and 1FTL). Cylinder depicts cell membrane. […] YM90K.1^DART.2 (right). Structural model (PDB 1FTL). […] (FIG. 6C) diazepam.1^DART.2 (left). Structural model (PDB 6HUP). […] GABAAR (middle) structural model (composite of PDB 6HUP and 6HUK). […] Structural model (PDB 6HUK).
Preparation of Retina: Mice were intravitreal injected AAV10 HaloTag™-dTomato to eyes. After 8-12 weeks, the mice killed by cervical dislocation. Both eyes were removed and dissected under a stereo-microscope. Retinas were isolated from the eyecups and placed in oxygenated (95% O2/5% CO2) cold-Ames medium (Sigma-Aldrich), supplemented with 21 mM NaHCO3. After the vitreous body was removed, a retina was cut into 3 pieces, leaving each retina piece attached to a filter paper with 2 mm hole by retina ganglion-cell-side-down. The pieces of retina were stored in bubbled Ames solution at room temperature, then transferred to recording chamber with retina ganglion-cell-side-up for recording.
Whole-cell patch-clamp recording: The brain slices or retinas were perfused with bubbled aCSF at 29-30° C. with a 2 ml/min flow rate. Recordings were made by whole cell patch recording techniques using a Multiclamp 700B amplifier (Molecular Devices, Axon Instruments Inc., Union City, CA). The signals were filtered at 10 KHz and acquired using Digitate 1440A and pClamp 10.7 (Molecular Devices). The recording pipettes (4 MΩ-6 MΩ) were filled with internal solutions. For GABAA receptor-mediated evoked inhibitory postsynaptic currents ([…]) recording, the pipettes filled with Cesium Chloride-based internal solution (in mM) 135 CsCl, 2 MgCl2, 0.5 EGTA, 10 HEPES, 4 Mg-ATP, 0.5 Na-GTP, 10 Na2-phosphocreatine, and QX314 (lidocaine N-ethyl bromide), pH adjusted to 7.3 with CsOH (290 mosm). For AMPA-receptor mediated evoked excitatory postsynaptic currents (eEPSCs) recording, the pipette solution contained (in mM) 130 CsMeS, 1 MgCl2, 0.5 EGTA, 10 HEPES, 4 Mg-ATP, 0.5 Na-GTP, 10 Na2-phosphocreatine, and 4 QX314, pH adjusted to 7.3 with CsOH (290 mosm). For experiment of brain slices and retinas, the eIPSCs or eEPSCs were elicited by electrical stimuli at 0.067 Hz in 0.3-ms duration and 150-300-ρA (60-70% maximum responses) stimulation intensity at a holding potential of −70 mV. The stimulating electrode was placed within 60-100 μm from the recording neuron under voltage-clamp mode. GABA-receptor mediated eIPSCs were isolated in the presence of DNQX ([…] AMPAR antagonist) and AP-V ([…] antagonist) in the bath solution. For AMPA-receptor mediated eEPSCs, added picrotoxin ([…], GABAAR antagonist) and AP-V ([…]) to the bath solution.

Compound	time by which fluorescence largely cleared [1] [h]	time to peak fluorescence intensity over cortex [1] [h]	time for DART capture to reach steady state [2] [h]	dye capture on +HTP cells [3]	dye capture on ddHTP or -HTP cells [3]	positive modulation of the AMPAR [4]	AMPAR evoked EPSC integral (total charge transfer) boost, +HTP cells [5] [fold]	AMPAR evoked EPSC, ddHTP cells [5]	integrated EPSC charge transfer, +HTP RGCs [5]	AMPAR evoked EPSC, ddHTP cells ([5]; listed as CMPDA.2^DART.2)
COc1cc(CCCCl)ccc1CCOCCNC(=O)c1ccc(CNC(=O)CCOCCOCCOCCOCCOCCOCCOCCOCCOCCOCCOCCOCCOCCOCCOCCOCCOCCOCCOCCOCCOCCOCCOCCOCCOCCOCCOCCOCCOCCOCCOCCOCCOCCOCCOCCOCCn2cc(COCCOCCOCCOCCOCCOCCNC(=O)CCCCCC3(C)\C(=C/C=C/C=C/C4=[N+](CCCS(=O)(=O)O)c5ccc(S(=O)(=O)[O-])cc5C4(C)C)N(CCCS(=O)(=O)O)c4ccc(S(=O)(=O)O)cc43)nn2)cc1 (centres unmarked) [Alexa647.1DART.2]	≤ 24	2	4 to 8	robust capture	no detectible capture					
C#CCOCCOCCOCCOCCOCCOCCC(CNS(=O)(=O)C(C)C)c1ccc(CCNS(=O)(=O)C(C)C)cc1 (centres unmarked) [CMPDA.1alkyne, N-(2-{4-[23-(propane-2-sulfonamido)-4,7, 10, 13, 16, 19-hexaoxatricos-1-yn-22-yl]phenyl}ethyl)propane-2-sulfonamide]						retained its ability to positively modulate the AMPAR				
COc1cc(CCCCl)ccc1CCOCCNC(=O)c1ccc(CNC(=O)CCOCCOCCOCCOCCOCCOCCOCCOCCOCCOCCOCCOCCOCCOCCOCCOCCOCCOCCOCCOCCOCCOCCOCCOCCOCCOCCOCCOCCOCCOCCOCCOCCOCCOCCOCCOCCn2cc(COCCNCCCNC(=O)CC(CNS(=O)(=O)C(C)C)c3ccc(CCNS(=O)(=O)C(C)C)cc3)nn2)cc1 (centres unmarked) [CMPDA.2DART.2]						restored the ability of the reagent to bind and produce positive allosterically modulation of the AMPAR	3	No impact	three-fold increase	not ^ddHTP cells

Reference: patent publication US20250213700A1, “COMPOUNDS, COMPOSITIONS, AND METHODS FOR CELL-SPECIFIC PHARMACOLOGY” (Duke University, priority 2022, published 2025)
